Measured values reported in the COVID Moonshot data (paper PMC11187573), “Identification of SARS-CoV-2 Mpro inhibitors through deep reinforcement learning for de novo drug design and computational chemistry approaches” (RSC Medicinal Chemistry, 2024).
pIC50: −log10 of the molar value.

Experiments:
[1] = biological target: SARS-CoV-2 Main Protease (SARS-CoV-2) (UniProt P0DTD1)
[2] = biological target: SARS-CoV-2 Main Protease (SARS-CoV-2) (UniProt P0DTD1); remark: listed apart in the source

SMILES	inhibition ([1]; 20.0 µM) [%]	inhibition ([2]; 20.0 µM) [%]	inhibition ([2]; 50.0 µM) [%]	relative solubility at 20 uM	relative solubility at 100 uM	pIC50 [1]	inhibition ([1]; 50.0 µM) [%]
O=C(Cc1c[nH]c2ncccc12)NCc1ccc(Cl)cn1	0	1.55	4.16	1	1		
C=CC(=O)N(c1ccc(C(C)(C)C)cc1)C(C(=O)NCC)c1cccnc1 (configuration not stated)	52.6	57	50.2	0.99	1	4.71	100
COc1ccc(S(=O)(=O)N2CCN(C(=O)c3cc(=O)[nH]c4cc(F)ccc34)CC2)cc1		5.98	-3.27	0.87	0.9		0
CC(NC(=O)c1ccc2cn[nH]c2c1)C(=O)Nc1ccc(-n2cnc3ccccc32)cc1 (configuration not stated)		13	3.73	0.7	0.51		12.8
Cc1ccc(-c2cc(C(F)(F)F)nn2-c2ccc(S(N)(=O)=O)cc2)cc1	2.17	6.23	11.9	0.91	0.79		
CC(Cl)C(=O)N1CCC(C(=O)N2CCCCC2)CC1 (configuration not stated)	0	-11.9	-27	0.99	1		0
Cc1ccncc1NC(=O)CC(C)(C)NC(=O)c1cccc2[nH]ccc12	0		-10.4	0.99	0.99		0
CN(C)c1ncccc1N(C)C(=O)C1CCOc2ccc(Cl)cc21 (configuration not stated)		1.42	-4.96	1	0.99		0
CC(OCC1CCCCO1)C(=O)N(CCc1ccccc1)Cc1cccnc1 (configuration not stated)	0		-20.6	1	1		0
O=C1[C@H](Nc2nccn3cnnc23)CCN1c1cccc(Cl)c1 (stereo in doubt)		3.55	5.29	1	0.98		0
Cc1ccncc1NC(=O)C12CCC(CO1)C2 (configuration not stated)		-5.84	9.66	1.01	1		0
C[C@H]1CN(Cc2ccccc2)CC[C@@H]1NC(=O)C(=O)NCc1ccccc1CN1CCCC[C@@H]1C (stereo in doubt)		-2.35	1.34	1	0.99		0
Cc1c(C(=O)NC(CC(=O)O)c2cccc(Cl)c2)cnc2ccccc12 (configuration not stated)		-13	6.12	1	1		8.52
O=C(Cc1cc(Cl)cc(Cl)c1)Nc1nncs1		13.9	-0.821	0.84	0.7		0
Cc1ccncc1NC(=O)C(C)Cc1ccccc1 (configuration not stated)		-54.9	-128	1	1		0
C=CC(=O)N(c1ccc2ncsc2c1)C(C(=O)Nc1c(C)cccc1CC)c1cccnc1 (configuration not stated)	0	7.67	10.7	0.97	0.97		
CCOC(=O)[C@H]1O[C@@H]1C(=O)N[C@@H](CC(C)C)C(=O)NCCC(C)C (stereo in doubt)		-1.54	-5.21	1	1		0
O=C(CC(=O)Nc1ccncc1)Nc1ccccc1	0		12	1	1		0
O=S(=O)(CCc1ccccc1)Nc1cccnc1		-0.803	-32.5	0.98	0.99		17.2
O=C(CSC1=NCCS1)c1cc(Cl)ccc1Cl		5.24	2.86	0.77	0.64		44.8

SMILES	inhibition ([1]; 20.0 µM) [%]	inhibition ([2]; 20.0 µM) [%]	inhibition ([2]; 50.0 µM) [%]	relative solubility at 20 uM	relative solubility at 100 uM	pIC50 [1]	inhibition ([1]; 50.0 µM) [%]
Cc1ccncc1NC(=O)C12CC(CO1)C2		-0.804	12.2	1	1		0
C=CC(=O)N(c1cc(C(C)(C)C)n[nH]1)C(C(=O)Nc1ccc(Cl)cc1)c1cccnc1 (configuration not stated)	0	6.12	19.5	0.78	0.68		
O=C(CCl)N1CCCC(N(CC2CCCCC2)C2CCC(O)CC2)C1 (configuration not stated)		-11.8	7.36	1	1		24.9
Sc1nc2ccccc2c2nc(CCc3ccccc3)nn12		-0.837	-6.97	0.93	0.89		0
O=C1CN(c2nnc(C3CCC(=O)N3)n2CCn2cc(Cl)cn2)CCN1 (configuration not stated)		-2.26	-0.405	1	1		35.3
Cc1ccnn1CC(=O)NCC(NC(=O)C(C)C#N)c1ccccc1 (configuration not stated)		-13.2	-6.86	0.99	1		-26.1
N#Cc1ccc(CNC(=O)Cc2c[nH]c3ncccc23)cc1	1.12	2.44	1.71	1	0.99		
O=C(O)[C@@H](Cc1nc(=O)cc[nH]1)NCc1ccc(Cl)s1 (stereo in doubt)		6.7	4.85	1.01	1		2.07
Cc1ccncc1NC(=O)C1(c2cccc(Cl)c2)CC1		38.4	61.6	1.01	1		43.3
N#Cc1cc(CN2CCN(C(=O)CCl)CC2)c2ccccc2c1	97.6	83.6	93.1	0.85	0.79	5.93	
O=C(Nc1ccccc1Cl)c1cc(Cl)ccc1O	7.14	5.47	5.58	0.91	0.7		
C=CC(=O)N(C1COC2(CCC2)C1)C(C(=O)NC(C)(C)C)c1cccnc1 (configuration not stated)	0	12.6	13.4	0.97	0.96		
Cc1ncncc1NC(=O)Nc1ccccc1	6.04	-2.06	-0.628	0.99	0.99		20.1
C=CC(=O)N(c1ccc(N(C)C)c(C)c1)C(C(=O)Nc1cccc(CC)c1)c1cccnc1 (configuration not stated)	0	7.05	11.7	0.85	0.68		
O=C(Cc1cncnc1)Nc1cccc(CCCc2ccccc2)c1	0	1.12	10.1	0.96	0.94		0
O=C(CCl)N1CCC(C(=O)N2CCCCC2)CC1	0.506	18.5	31.4	1	1		
COc1ccccc1OCCNC(=O)c1cc(=O)[nH]c2ccc(Cl)cc12		-2.31	34.1	0.93	0.66		23
CC(=O)NCc1cccc(NC(=O)Cc2cncnc2)c1		3.15	6.22	1.01	1		0
O=C(COc1ccccc1)NCCc1ccccc1	0	-0.178	-0.0738	1	1		0
